Data as given in patent publication US20230150953A1, “SUBSTITUTED ISOPHTHALIC ACID DIAMIDES” (Bayer Aktiengesellschaft, priority 2020, published 2023).

Key:
Type in all cases: in vivo
[1] = tested on: ABUTH Abutilon theophrasti; assay: Pre-emergence herbicidal action against harmful plants; conditions: scored visually after 3 weeks vs untreated controls
Excerpt: (§1) The abbreviations used for the harmful plants mean: • ABUTH Abutilon theophrasti ALOMY Alopecurus myosuroides • AVEFA Avena fatua AMARE Amaranthus retroflexus • CYPES Cyperus esculentus DIGSA Digitaria sanguinalis • ECHCG Echinochloa crus-galli HORMU Hordeum murinum • LOLMU Lolium multiflorum LOLRI Lolium rigidum • MATIN Matricaria inodora PHBPU Pharbitis purpurea • POLCO Polygonum convolvulus SETVI Setaria viridis • STEME Stellaria media VERPE Veronica persica • VIOTR Viola tricolor 1. Pre-Emergence Herbicidal Action Against Harmful Plants Seeds of monocotyledonous and dicotyledonous weed plants and crop plants are laid out in sandy loam soil in wood-fiber pots and covered with soil. The compounds of the invention, formulated in the form of wettable powders (WP) or as emulsion concentrates (EC), are then applied to the surface of the covering soil in the form of an aqueous suspension or emulsion at a water application rate equivalent to 600 to 800 l/ha, with addition of 0.2% wetting agent. After the treatment, the pots are placed in a greenhouse and kept under good growth conditions for the trial plants. The damage to the test plants is scored visually after a test period of 3 weeks by comparison with untreated controls (herbicidal activity in percent (%): 100% activity=the plants have died, 0% activity=like control plants). […] The tables below illustrate, in an illustrative manner, the post-emergence herbicidal action of the compounds of the invention, the herbicidal activity being stated in percent.

[2] = tested on: ALOMY Alopecurus myosuroides; assay: as above; conditions: scored visually after 3 weeks vs untreated controls
Excerpt: as §1

[3] = tested on: AMARE Amaranthus retroflexus; assay: as above; conditions: scored visually after 3 weeks vs untreated controls
Excerpt: as §1

[4] = tested on: DIGSA Digitaria sanguinalis; assay: as above; conditions: scored visually after 3 weeks vs untreated controls
Excerpt: as §1

[5] = tested on: ECHCG Echinochloa crus-galli; assay: as above; conditions: scored visually after 3 weeks vs untreated controls
Excerpt: as §1

[6] = tested on: MATIN Matricaria inodora; assay: as above; conditions: scored visually after 3 weeks vs untreated controls
Excerpt: as §1

[7] = tested on: PHBPU Pharbitis purpurea; assay: as above; conditions: 80 g/ha, scored visually after 3 weeks vs untreated controls
Excerpt: as §1

[8] = tested on: POLCO Polygonum convolvulus; assay: as above; conditions: 80 g/ha, scored visually after 3 weeks vs untreated controls
Excerpt: as §1

[9] = tested on: ABUTH Abutilon theophrasti; assay: Post-emergence herbicidal action against harmful plants; conditions: one-leaf stage, assessed visually after about 3 weeks vs untreated controls
Excerpt: (§2) The abbreviations used for the harmful plants mean: • ABUTH Abutilon theophrasti ALOMY Alopecurus myosuroides • AVEFA Avena fatua AMARE Amaranthus retroflexus • CYPES Cyperus esculentus DIGSA Digitaria sanguinalis • ECHCG Echinochloa crus-galli HORMU Hordeum murinum • LOLMU Lolium multiflorum LOLRI Lolium rigidum • MATIN Matricaria inodora PHBPU Pharbitis purpurea • POLCO Polygonum convolvulus SETVI Setaria viridis • STEME Stellaria media VERPE Veronica persica • VIOTR Viola tricolor 2. Post-Emergence Herbicidal Action Against Harmful Plants Seeds of monocotyledonous and dicotyledonous weed and crop plants are laid out in sandy loam soil in wood-fiber pots, covered with soil and cultivated in a greenhouse under good growth conditions. 2 to 3 weeks after sowing, the test plants are treated at the one-leaf stage. The compounds of the invention, formulated in the form of wettable powders (WP) or as emulsion concentrates (EC), are then sprayed onto the green parts of the plants in the form of an aqueous suspension or emulsion at a water application rate equivalent to 600 to 800 l/ha, with addition of 0.2% wetting agent. After the test plants have been left to stand in the greenhouse under optimal growth conditions for about 3 weeks, the action of the preparations is assessed visually in comparison to untreated controls (herbicidal action in percent (%): 100% activity=the plants have died, 0% activity=like control plants). […] The tables below illustrate, in an illustrative manner, the post-emergence herbicidal action of the compounds of the invention, the herbicidal activity being stated in percent.

[10] = tested on: AMARE Amaranthus retroflexus; assay: as above; conditions: one-leaf stage, assessed visually after about 3 weeks vs untreated controls
Excerpt: as §2

[11] = tested on: DIGSA Digitaria sanguinalis; assay: as above; conditions: one-leaf stage, assessed visually after about 3 weeks vs untreated controls
Excerpt: as §2

[12] = tested on: MATIN Matricaria inodora; assay: as above; conditions: one-leaf stage, assessed visually after about 3 weeks vs untreated controls
Excerpt: as §2

[13] = tested on: PHBPU Pharbitis purpurea; assay: as above; conditions: one-leaf stage, assessed visually after about 3 weeks vs untreated controls
Excerpt: as §2

[14] = tested on: VERPE Veronica persica; assay: as above; conditions: one-leaf stage, assessed visually after about 3 weeks vs untreated controls
Excerpt: as §2

[15] = tested on: SETVI Setaria viridis; assay: Pre-emergence herbicidal action against harmful plants; conditions: 80 g/ha, scored visually after 3 weeks vs untreated controls
Excerpt: as §1

[16] = tested on: ALOMY Alopecurus myosuroides; assay: Post-emergence herbicidal action against harmful plants; conditions: one-leaf stage, assessed visually after about 3 weeks vs untreated controls
Excerpt: as §2

[17] = tested on: AVEFA Avena fatua; assay: as above; conditions: one-leaf stage, assessed visually after about 3 weeks vs untreated controls
Excerpt: as §2

[18] = tested on: POLCO Polygonum convolvulus; assay: as above; conditions: one-leaf stage, assessed visually after about 3 weeks vs untreated controls
Excerpt: as §2

[19] = tested on: SETVI Setaria viridis; assay: as above; conditions: one-leaf stage, assessed visually after about 3 weeks vs untreated controls
Excerpt: as §2

[20] = tested on: AVEFA Avena fatua; assay: Pre-emergence herbicidal action against harmful plants; conditions: scored visually after 3 weeks vs untreated controls
Excerpt: as §1

[21] = tested on: ECHCG Echinochloa crus-galli; assay: Post-emergence herbicidal action against harmful plants; conditions: one-leaf stage, assessed visually after about 3 weeks vs untreated controls
Excerpt: as §2

[22] = tested on: LOLRI Lolium rigidum; assay: Pre-emergence herbicidal action against harmful plants; conditions: scored visually after 3 weeks vs untreated controls
Excerpt: as §1

Row | SMILES | Pre-emergence action at 80 g/ha against ABUTH in % [1] [%] | Pre-emergence action at 80 g/ha against ALOMY in % [2] [%] | Pre-emergence action at 20 g/ha against AMARE in % [3] [%] | Pre-emergence action at 80 g/ha against AMARE in % [3] [%] | Pre-emergence action at 20 g/ha against DIGSA in % [4] [%] | Pre-emergence action at 80 g/ha against DIGSA in % [4] [%] | Pre-emergence action at 80 g/ha against ECHCG in % [5] [%] | Pre-emergence action at 20 g/ha against MATIN in % [6] [%] | Pre-emergence action at 80 g/ha against MATIN in % [6] [%] | Pre-emergence action at 80 g/ha against PHBPU in % [7] [%] | Pre-emergence action at 80 g/ha against POLCO in % [8] [%] | Post-emergence action at 5 g/ha against AMARE in % [10] [%] | Post-emergence action at 20 g/ha against AMARE in % [10] [%] | Post-emergence action at 20 g/ha against DIGSA in % [11] [%] | Post-emergence action at 20 g/ha against MATIN in % [12] [%] | Post-emergence action at 20 g/ha against PHBPU in % [13] [%] | Pre-emergence action at 80 g/ha against SETVI in % [15] [%] | Post-emergence action at 20 g/ha against ALOMY in % [16] [%] | Post-emergence action at 20 g/ha against POLCO in % [18] [%] | Pre-emergence action at 80 g/ha against AVEFA in % [20] [%] | other results
1 | CCN(C)C(=O)c1c(C(F)(F)F)cc(F)c(C(=O)Nc2nnnn2CC)c1C [Example 2-96] | 90 | 80 | 100 | 100 | 80 | 90 | 80 | 80 | 90 | 80 | 80 | 80 | 90 | 90 | 80 | 90 | – | – | – | – | Post-emergence action at 20 g/ha against ABUTH in % [9]: 80%; Post-emergence action at 20 g/ha against VERPE in % [14]: 80%
2 | Cc1c(C(=O)Nc2nnnn2C)cc(Cl)c(C(F)(F)F)c1C(=O)NC1CC1 [Example 1-85] | 100 | 80 | 100 | 100 | 100 | 100 | 80 | 80 | 100 | 80 | 80 | – | 80 | 90 | – | 80 | 100 | 80 | 80 | – | Post-emergence action at 20 g/ha against AVEFA in % [17]: 80%; Post-emergence action at 20 g/ha against SETVI in % [19]: 80%
3 | Cc1c(C(=O)Nc2nnnn2C)c(F)cc(C(F)(F)F)c1C(=O)NCC1CC1 [Example 1-384] | 100 | 80 | 100 | 100 | 100 | 100 | 100 | – | 80 | – | 90 | 80 | 90 | – | – | – | 90 | 80 | – | 80 | Post-emergence action at 5 g/ha against ECHCG in % ([21]; 5 g/ha): 80%; Post-emergence action at 20 g/ha against ECHCG in % ([21]; 20 g/ha): 80%
4 | CCn1nnnc1NC(=O)c1cc(Cl)c(C(F)(F)F)c(C(=O)NC2CC2)c1C [Example 2-85] | 100 | 90 | 100 | 100 | 80 | 100 | 80 | 90 | 100 | 90 | 80 | 80 | 90 | 90 | 80 | 90 | 100 | 80 | 80 | 80 | Pre-emergence action at 20 g/ha against ABUTH in % ([1]; 20 g/ha): 80%; Pre-emergence action at 20 g/ha against ALOMY in % ([2]; 20 g/ha): 80%; Pre-emergence action at 80 g/ha against LOLRI in % [22]: 80%; Post-emergence action at 5 g/ha against PHBPU in % ([13]; 5 g/ha): 80%
